In the NIST ThermoML archive (doi:10.1016/j.jct.2008.01.006):
Numbers after ± are expanded uncertainties.

Settings: Liquid, Vibrating tube method

CCCCCCCN [1-heptanamine]
mass density [kg/m3]
Settings | 293.15 K | 303.15 K | 313.15 K | 323.15 K | 333.15 K | 343.15 K | 353.15 K
100 kPa | 774.9 ± 0.4 | 766.5 ± 0.4 | 758.2 ± 0.4 | 749.8 ± 0.4 | 741.4 ± 0.4 | 732.6 ± 0.5 | 724.4 ± 0.5
10000 kPa | 781.1 ± 0.5 | 773.6 ± 0.5 | 765.4 ± 0.5 | 757.6 ± 0.5 | 749.5 ± 0.5 | 741.7 ± 0.5 | 733.7 ± 0.6
20000 kPa | 787.1 ± 0.5 | 780 ± 0.6 | 772 ± 0.6 | 764.5 ± 0.6 | 756.8 ± 0.6 | 749.6 ± 0.6 | 741.9 ± 0.6
30000 kPa | 792.6 ± 0.6 | 785.8 ± 0.6 | 778.2 ± 0.7 | 771 ± 0.7 | 763.4 ± 0.7 | 756.7 ± 0.7 | 749.3 ± 0.7
40000 kPa | 797.8 ± 0.7 | 791.3 ± 0.7 | 784 ± 0.7 | 777 ± 0.8 | 769.6 ± 0.8 | 763.3 ± 0.8 | 756.2 ± 0.8
50000 kPa | 802.7 ± 0.8 | 796.5 ± 0.8 | 789.3 ± 0.8 | 782.6 ± 0.9 | 775.5 ± 0.9 | 769.4 ± 0.9 | 762.6 ± 0.9
60000 kPa | 807.4 ± 0.9 | 801.3 ± 0.9 | 794.5 ± 0.9 | 787.8 ± 0.9 | 780.9 ± 1 | 775.1 ± 1 | 768.7 ± 1
70000 kPa | 811.8 ± 0.9 | 806 ± 1 | 799.2 ± 1 | 792.7 ± 1 | 786.2 ± 1 | 780.4 ± 1.1 | 774.2 ± 1.1
80000 kPa | 816.1 ± 1 | 810.4 ± 1 | 803.7 ± 1.1 | 797.5 ± 1.1 | 791.1 ± 1.1 | 785.5 ± 1.2 | 779.5 ± 1.2
90000 kPa | 820.2 ± 1.1 | 814.6 ± 1.1 | 808 ± 1.2 | 802 ± 1.2 | 795.6 ± 1.2 | 790.3 ± 1.2 | 784.3 ± 1.3
100000 kPa | 824 ± 1.2 | 818.7 ± 1.2 | 812.2 ± 1.2 | 806.3 ± 1.3 | 800 ± 1.3 | 794.9 ± 1.3 | 789.2 ± 1.3
110000 kPa | 827.8 ± 1.2 | 822.5 ± 1.3 | 816.2 ± 1.3 | 810.6 ± 1.3 | 804.3 ± 1.4 | 799.2 ± 1.4 | 793.7 ± 1.4
120000 kPa | 831.5 ± 1.3 | 826.2 ± 1.3 | 820.1 ± 1.4 | 814.5 ± 1.4 | 808.4 ± 1.4 | 803.3 ± 1.5 | 797.9 ± 1.5
130000 kPa | 835 ± 1.3 | 829.9 ± 1.4 | 823.8 ± 1.4 | 818.4 ± 1.5 | 812.4 ± 1.5 | 807.4 ± 1.5 | 802.1 ± 1.6
140000 kPa | 838.3 ± 1.4 | 833.3 ± 1.4 | 827.4 ± 1.5 | 822.1 ± 1.5 | 816.2 ± 1.6 | 811.3 ± 1.6 | 806.1 ± 1.6

CCCCCCN [1-hexanamine]
mass density [kg/m3]
Settings | 293.15 K | 303.15 K | 313.15 K | 323.15 K | 333.15 K | 343.15 K | 353.15 K
100 kPa | 765.1 ± 0.3 | 756.2 ± 0.4 | 748.2 ± 0.4 | 738.9 ± 0.4 | 730.2 ± 0.4 | 721.3 ± 0.4 | 712.4 ± 0.5
10000 kPa | 771.5 ± 0.4 | 763.5 ± 0.4 | 755.4 ± 0.4 | 746.9 ± 0.5 | 738.7 ± 0.5 | 730.6 ± 0.5 | 722.3 ± 0.5
20000 kPa | 777.6 ± 0.5 | 770.2 ± 0.5 | 762.3 ± 0.5 | 754.2 ± 0.5 | 746.3 ± 0.5 | 738.8 ± 0.6 | 731.1 ± 0.6
30000 kPa | 783.4 ± 0.6 | 776.3 ± 0.6 | 768.6 ± 0.6 | 761 ± 0.6 | 753.4 ± 0.6 | 746.4 ± 0.6 | 739 ± 0.7
40000 kPa | 788.8 ± 0.6 | 781.9 ± 0.7 | 774.6 ± 0.7 | 767.2 ± 0.7 | 759.9 ± 0.7 | 753.2 ± 0.7 | 746 ± 0.8
50000 kPa | 793.8 ± 0.7 | 787.2 ± 0.7 | 780.2 ± 0.8 | 772.9 ± 0.8 | 765.9 ± 0.8 | 759.6 ± 0.8 | 752.5 ± 0.9
60000 kPa | 798.8 ± 0.8 | 792.2 ± 0.8 | 785.3 ± 0.8 | 778.4 ± 0.9 | 771.6 ± 0.9 | 765.6 ± 0.9 | 759 ± 0.9
70000 kPa | 803.3 ± 0.9 | 796.9 ± 0.9 | 790.3 ± 0.9 | 783.5 ± 1 | 776.9 ± 1 | 771 ± 1 | 764.6 ± 1
80000 kPa | 807.7 ± 1 | 801.5 ± 1 | 794.9 ± 1 | 788.4 ± 1 | 781.9 ± 1.1 | 776.2 ± 1.1 | 770 ± 1.1
90000 kPa | 811.9 ± 1 | 805.8 ± 1.1 | 799.4 ± 1.1 | 792.9 ± 1.1 | 786.7 ± 1.2 | 781.1 ± 1.2 | 775.1 ± 1.2
100000 kPa | 815.9 ± 1.1 | 810 ± 1.1 | 803.7 ± 1.2 | 797.3 ± 1.2 | 791.2 ± 1.2 | 785.9 ± 1.3 | 780 ± 1.3
110000 kPa | 819.8 ± 1.2 | 814 ± 1.2 | 807.8 ± 1.2 | 801.7 ± 1.3 | 795.7 ± 1.3 | 790.3 ± 1.3 | 784.6 ± 1.4
120000 kPa | 823.5 ± 1.2 | 817.9 ± 1.3 | 811.7 ± 1.3 | 805.8 ± 1.3 | 799.9 ± 1.4 | 794.6 ± 1.4 | 789.1 ± 1.5
130000 kPa | 827.1 ± 1.3 | 821.6 ± 1.3 | 815.5 ± 1.4 | 809.7 ± 1.4 | 803.8 ± 1.5 | 798.8 ± 1.5 | 793.2 ± 1.5
140000 kPa | 830.5 ± 1.4 | 825.1 ± 1.4 | 819.1 ± 1.4 | 813.5 ± 1.5 | 807.6 ± 1.5 | 802.7 ± 1.6 | 797.3 ± 1.6

CCCCCN [1-pentanamine]
mass density [kg/m3]
Settings | 293.15 K | 303.15 K | 313.15 K | 323.15 K | 333.15 K | 343.15 K | 353.15 K
100 kPa | 754.1 ± 0.4 | 744.7 ± 0.4 | 735.6 ± 0.4 | 726.4 ± 0.4 | 716.9 ± 0.4 | 707.5 ± 0.5 | 698 ± 0.5
10000 kPa | 760.9 ± 0.4 | 752.6 ± 0.5 | 743.8 ± 0.5 | 735.1 ± 0.5 | 726.1 ± 0.5 | 717.8 ± 0.5 | 708.7 ± 0.6
20000 kPa | 767.4 ± 0.5 | 759.6 ± 0.5 | 751.1 ± 0.5 | 742.8 ± 0.6 | 734.3 ± 0.6 | 726.5 ± 0.6 | 718 ± 0.6
30000 kPa | 773.4 ± 0.6 | 765.9 ± 0.6 | 757.9 ± 0.6 | 749.8 ± 0.6 | 741.7 ± 0.7 | 734.4 ± 0.7 | 726.3 ± 0.7
40000 kPa | 778.9 ± 0.7 | 772 ± 0.7 | 764.1 ± 0.7 | 756.3 ± 0.7 | 748.5 ± 0.8 | 741.6 ± 0.8 | 733.9 ± 0.8
50000 kPa | 784.2 ± 0.8 | 777.4 ± 0.8 | 769.8 ± 0.8 | 762.3 ± 0.8 | 754.8 ± 0.9 | 748.2 ± 0.9 | 740.8 ± 0.9
60000 kPa | 789.3 ± 0.8 | 782.7 ± 0.9 | 775.2 ± 0.9 | 768 ± 0.9 | 760.7 ± 0.9 | 754.3 ± 1 | 747.4 ± 1
70000 kPa | 794 ± 0.9 | 787.4 ± 1 | 780.3 ± 1 | 773.2 ± 1 | 766.3 ± 1 | 760 ± 1.1 | 753.3 ± 1.1
80000 kPa | 798.5 ± 1 | 792.1 ± 1 | 785.1 ± 1.1 | 778.2 ± 1.1 | 771.5 ± 1.1 | 765.4 ± 1.2 | 759.1 ± 1.2
90000 kPa | 802.8 ± 1.1 | 796.5 ± 1.1 | 789.7 ± 1.1 | 783 ± 1.2 | 776.5 ± 1.2 | 770.6 ± 1.2 | 764.2 ± 1.3
100000 kPa | 806.9 ± 1.2 | 800.8 ± 1.2 | 794.1 ± 1.2 | 787.6 ± 1.3 | 781.1 ± 1.3 | 775.4 ± 1.3 | 769.3 ± 1.4
110000 kPa | 810.8 ± 1.2 | 805 ± 1.3 | 798.4 ± 1.3 | 792.1 ± 1.3 | 785.6 ± 1.4 | 780.1 ± 1.4 | 774.1 ± 1.4
120000 kPa | 814.7 ± 1.3 | 808.8 ± 1.3 | 802.4 ± 1.4 | 796.2 ± 1.4 | 790 ± 1.5 | 784.4 ± 1.5 | 778.6 ± 1.5
130000 kPa | 818.4 ± 1.4 | 812.5 ± 1.4 | 806.4 ± 1.4 | 800.3 ± 1.5 | 794.2 ± 1.5 | 788.7 ± 1.6 | 782.9 ± 1.6
140000 kPa | 822 ± 1.4 | 816.1 ± 1.5 | 810.1 ± 1.5 | 804.2 ± 1.6 | 798 ± 1.6 | 792.8 ± 1.6 | 787.2 ± 1.7
